Test results reported in the supplement of paper PMC4862054.

How the values were obtained:
Experiment in all cases: normalised response (% of control), CellTiter-Glo; higher = more viable cells (100 = DMSO, 0 = benzethonium chloride kill control)
Conditions in all cases: incubation time: 72 h
BT-474 = test system: BT-474
How it was run: (§1)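 Every value is a normalised signal taken at one concentration of a dilution series. Compound was placed in 384-well plates at 5 concentrations in 10-fold steps over a compound-specific 10,000-fold range, and 20 µl of breast cancer cell suspension was seeded onto it. After 72 h, CellTox Green fluorescence (485/520 nm) was measured first and CellTiter-Glo luminescence second, following 10 min at room temperature. Each plate was scaled to 0.1 % DMSO (100) and a positive kill control (0).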

BT-549 = test system: BT-549
How it was run: as §1

CAL-120 = test system: CAL-120
How it was run: as §1

CAL-148 = test system: CAL-148
How it was run: as §1

CAL-51 = test system: CAL-51
How it was run: as §1

CAL-85-1 = test system: CAL-85-1
How it was run: as §1

DU-4475 = test system: DU-4475
How it was run: as §1

HCC1143 = test system: HCC1143
How it was run: as §1

HCC1599 = test system: HCC1599
How it was run: as §1

HCC1937 = test system: HCC1937
How it was run: as §1

HDQ-P1 = test system: HDQ-P1
How it was run: as §1

Hs578T = test system: Hs578T
How it was run: as §1

MCF-10A = test system: MCF-10A
How it was run: as §1

MDA-MB-231 = test system: MDA-MB-231
How it was run: as §1

MDA-MB-436 = test system: MDA-MB-436
How it was run: as §1

MDA-MB-453 = test system: MDA-MB-453
How it was run: as §1

MDA-MB-468 = test system: MDA-MB-468
How it was run: as §1

MFM-223 = test system: MFM-223
How it was run: as §1

SK-BR-3 = test system: SK-BR-3
How it was run: as §1

Row | Compound | normalised response (BT-474) | normalised response (BT-549) | normalised response (CAL-120) | normalised response (CAL-148) | normalised response (CAL-51) | normalised response (CAL-85-1) | normalised response (DU-4475) | normalised response (HCC1143) | normalised response (HCC1599) | normalised response (HCC1937) | normalised response (HDQ-P1) | normalised response (Hs578T) | normalised response (MCF-10A) | normalised response (MDA-MB-231) | normalised response (MDA-MB-436) | normalised response (MDA-MB-453) | normalised response (MDA-MB-468) | normalised response (MFM-223) | normalised response (SK-BR-3)
1 | CCOC(=O)CCNc1cc(N2CCc3ccccc3CC2)nc(-c2ccccn2)n1 [GSK-J4] (10 nM) | 97.3% | 101% | 102% | 92.8% | 102% | 93.1% | 99% | 92.6% | 104% | 93.1% | 97.4% | 97% | 102% | 95.1% | 95.8% | 91.9% | 97.8% | 99.4% | 97.9%
2 | CCOC(=O)CCNc1cc(N2CCc3ccccc3CC2)nc(-c2ccccn2)n1 [GSK-J4] (100 nM) | 95.7% | 93.8% | 110% | 101% | 97.8% | 100% | 95.3% | 97.6% | 95.5% | 95.2% | 93.1% | 105% | 97.3% | 92.8% | 92.6% | 84.8% | 95.5% | 103% | 68.8%
3 | Cc1cc(Nc2cc(CN3CCOCC3)c3nc(C)c(Cc4ccc(Cl)cc4F)n3n2)n[nH]1 [Gandotinib] (1 nM) | 108% | 105% | 94.4% | 111% | 93.5% | 104% | 106% | 97.8% | 109% | 100% | 97.3% | 100% | 107% | 98.1% | 97.4% | 103% | 112% | 99.7% | 110%
4 | COc1cc2ncnc(Nc3ccc(F)c(Cl)c3)c2cc1OCCCN1CCOCC1 [Gefitinib] (10 nM) | 100% | 98.6% | 96.2% | 105% | 103% | 96.6% | 100% | 98.1% | 89.5% | 98.3% | 97% | 103% | 95.6% | 98% | 103% | 108% | 95.9% | 108% | 107%
5 | NC(=O)c1ccc(I)c([N+](=O)[O-])c1 [Iniparib] (10 nM) | 91.2% | 94.2% | 91.9% | 83.2% | 85.4% | 90.6% | 93.5% | 90% | 94.2% | 95.4% | 89.2% | 92.8% | 81.3% | 92.6% | 87.2% | 77.9% | 90.7% | 84.2% | 74.1%
6 | CCc1c2c(nc3ccc(OC(=O)N4CCC(N5CCCCC5)CC4)cc13)-c1cc3c(c(=O)n1C2)COC(=O)[C@]3(O)CC [Irinotecan] (10 nM) | 100% | 90.8% | 94.2% | 93.7% | 114% | 100% | 106% | 99.7% | 97.5% | 94.8% | 98.4% | 97.7% | 105% | 97.7% | 92.7% | 107% | 105% | 98.7% | 109%
7 | Oc1ccc2c(c1)CC[C@H](c1ccccc1)[C@@H]2c1ccc(OCCN2CCCC2)cc1 [Lasofoxifene] (1 nM) | 102% | 93.2% | 95.1% | 112% | 106% | 96.6% | 105% | 100% | 97.3% | 101% | 96.3% | 103% | 104% | 104% | 101% | 112% | 105% | 107% | 110%
8 | COC(=O)c1ccc2c(c1)NC(=O)/C2=C(\Nc1ccc(N(C)C(=O)CN2CCN(C)CC2)cc1)c1ccccc1 [Nintedanib] (1 nM) | 98% | 97.6% | 104% | 110% | 121% | 99.1% | 101% | 97.1% | 103% | 97.7% | 102% | 95.9% | 103% | 98.7% | 101% | 120% | 110% | 99.1% | 101%
9 | COC(=O)c1ccc2c(c1)NC(=O)/C2=C(\Nc1ccc(N(C)C(=O)CN2CCN(C)CC2)cc1)c1ccccc1 [Nintedanib] (10 nM) | 96.9% | 100% | 100% | 105% | 125% | 95% | 103% | 97% | 133% | 97.3% | 104% | 104% | 107% | 91.2% | 104% | 115% | 102% | 103% | 115%
10 | O=C(Nc1cccnc1)N1CCC(Cc2cccc(Oc3ccc(C(F)(F)F)cn3)c2)CC1 [PF-3845] (10 nM) | 110% | 96.7% | 105% | 112% | 88.9% | 103% | 105% | 106% | 96.9% | 103% | 97.3% | 108% | 115% | 109% | 100% | 106% | 101% | 119% | 96.7%
